pIC50: −log10 of the molar value.
Key:
[1] = biological target: AKT3 (Homo sapiens (Human), UniProt Q9Y243); assay: AKT kinase activity assay (HTRF kinEASE TK), AKT3; format: biochemical; conditions: 10 nM ATP, read-out: AKT3 enzyme activity IC50
Method: The substrate and ATP were respectively diluted with the 1× kinase reaction buffer to a concentration 5 times the reaction concentration.
A 5× enzyme working solution was prepared from the 1× kinase reaction buffer.
A 4× streptavidin-XL665 working solution was prepared from the assay buffer.
4× europium-labeled tyrosine kinase substrate antibody working solution The europium-labeled tyrosine kinase substrate antibody was 100-fold diluted with the assay reaction buffer to obtain a working solution.
After all the reagents were prepared according to the above method, except for the enzyme, the reagents were equilibrated to the room temperature and loaded.
b) 2 µL of previously prepared TK-biotin substrate solution (the concentration of the substrate for enzyme screening is shown in Table 1) was placed in each reaction well.
The plate was sealed with a sealing film, and the reaction solution was mixed until uniform and incubated at the room temperature for 10 min to allow the compound to fully react with and bind to the enzyme.
d) 2 µL of ATP solution was placed in each reaction well to initiate a kinase reaction (the concentration of ATP for enzyme screening and reaction time are shown in Table 1).
e) 5 min before the kinase reaction was completed, an assay solution was prepared.
f) After the kinase reaction was completed, 5 µL of diluted streptavidin-XL665 was placed in each reaction well and mixed with the reaction solution until uniform, and the diluted europium-labeled tyrosine kinase substrate antibody assay solution was immediately added.

[2] = biological target: AKT1 (Homo sapiens (Human), UniProt P31749); assay: AKT kinase activity assay (HTRF kinEASE TK), AKT1; format: biochemical; conditions: 2 µM ATP, read-out: AKT1 enzyme activity IC50
[3] = system: LnCap human prostate cancer; assay: Subcutaneous transplantation model of LnCap human prostate cancer; format: in vivo, NCG mice; conditions: for T/C / TGI / TV on the day of the end of the experiment: 18 days; for TV on the day of the end of the experiment / TV on the day of grouping and administration: mean ± SEM; for TV on the day of grouping and administration: baseline
Source text: NCG mice, male, 8-10-week-old (when tumor cells were inoculated into the mice). […] LnCap cells in exponential growth phase were harvested and resuspended in PBS to a concentration suitable for subcutaneous tumor inoculation into mice. […] A formula for calculating a tumor volume: long diameter × short diameter^2 / 2. [table] […] Solvent: the solvent was a mixed solvent of PG, PEG400, and water, PG: PEG400: water=(20-40): (20-30): (30-50) (v: v: v). Any ratio within the range can be used. [table] All experimental results are shown as mean tumor volume ± SEM (standard error of mean). Whether there is a significant difference between the treatment group and the control group in terms of tumor volume was determined by the independent samples T test. All data were analyzed by using SPSS 18.0.

AKT3, sequence (Q9Y243 whole entry): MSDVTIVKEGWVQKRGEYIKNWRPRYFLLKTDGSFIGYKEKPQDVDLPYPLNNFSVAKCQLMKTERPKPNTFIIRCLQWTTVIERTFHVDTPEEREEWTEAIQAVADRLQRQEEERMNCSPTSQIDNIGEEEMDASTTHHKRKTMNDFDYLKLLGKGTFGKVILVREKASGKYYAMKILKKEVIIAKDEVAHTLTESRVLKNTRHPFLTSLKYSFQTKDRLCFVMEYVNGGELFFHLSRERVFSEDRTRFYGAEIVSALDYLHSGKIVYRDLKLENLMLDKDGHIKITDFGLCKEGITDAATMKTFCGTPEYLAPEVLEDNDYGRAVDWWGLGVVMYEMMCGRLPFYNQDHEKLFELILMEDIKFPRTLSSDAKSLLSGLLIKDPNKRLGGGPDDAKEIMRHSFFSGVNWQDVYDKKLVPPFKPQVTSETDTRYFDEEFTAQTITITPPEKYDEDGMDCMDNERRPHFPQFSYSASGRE
AKT1, sequence (P31749 whole entry): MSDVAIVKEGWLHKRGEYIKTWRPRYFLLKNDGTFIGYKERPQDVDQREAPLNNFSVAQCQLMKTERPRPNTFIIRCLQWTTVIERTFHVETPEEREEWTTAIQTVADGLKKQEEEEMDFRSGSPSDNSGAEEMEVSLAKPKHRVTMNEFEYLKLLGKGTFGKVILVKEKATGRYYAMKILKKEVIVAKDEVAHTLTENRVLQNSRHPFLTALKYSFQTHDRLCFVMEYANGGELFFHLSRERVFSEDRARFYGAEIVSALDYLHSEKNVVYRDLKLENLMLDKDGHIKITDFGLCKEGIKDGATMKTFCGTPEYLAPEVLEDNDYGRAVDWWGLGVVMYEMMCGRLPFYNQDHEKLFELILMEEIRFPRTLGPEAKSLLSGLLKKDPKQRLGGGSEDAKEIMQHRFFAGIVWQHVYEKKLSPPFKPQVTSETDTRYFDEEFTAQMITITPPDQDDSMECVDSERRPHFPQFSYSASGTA

SMILES | pIC50 [1] | pIC50 [2] | T/C ([3]; 50 mg/kg QD po) | TGI ([3]; 50 mg/kg QD po) | TV on the day of the end of the experiment ([3]; 50 mg/kg QD po) | TV on the day of grouping and administration ([3]; 50 mg/kg QD po) | also measured
CC(C)NC[C@@H](C(=O)N1CCN(c2ncnc3c2[C@H](C)CC(=O)N3)[C@H]2C[C@H]21)c1ccc(Cl)cc1 [Isomer 2 of Example 1, (R)-4-((1S,6R)-5-((S)-2-(4-chlorophenyl)-3-(isopropylamino)propionyl)-2,5-diazabicyclo[4.1.0]heptan-2-yl)-5-methyl-5,8-dihydropyrido[2,3-d]pyrimidin-7(6H)-one] | – | – | 4.52% | 95.48% | 43.64±16.62 mm^3 | 177.78±6.64 mm^3 | T/C ([3]; 12.5 mg/kg QD po): 41.57%; TGI ([3]; 12.5 mg/kg QD po): 58.43%; TV on the day of the end of the experiment ([3]; 12.5 mg/kg QD po): 401.07±80.17 mm^3; TV on the day of grouping and administration ([3]; 12.5 mg/kg QD po): 177.76±6.67 mm^3; T/C ([3]; 25 mg/kg QD po): 15.90%; TGI ([3]; 25 mg/kg QD po): 84.10%; TV on the day of the end of the experiment ([3]; 25 mg/kg QD po): 153.42±23.11 mm^3; TV on the day of grouping and administration ([3]; 25 mg/kg QD po): 177.80±6.71 mm^3
C[C@@H]1CC(=O)Nc2ncnc(N3CCN(C(=O)[C@H](CNC4CC4)c4ccc(Cl)cc4)[C@@H]4C[C@@H]43)c21 [Isomer 2 of Example 2, (R)-4-((1S,6R)-5-((S)-2-(4-chlorophenyl)-3(cyclopropylamino)propionyl)-2,5-diazabicyclo[4.1.0]heptan-2-yl)-5-methyl-5,8-dihydropyrido[2,3-d]pyrimidin-7(6H)-one] | – | – | 19.44% | 80.56% | 187.49±22.88 mm^3 | – | –

Now from value to molecule, other results behind:

pIC50 [1] | pIC50 [2] | SMILES | T/C ([3]; 50 mg/kg QD po) | TGI ([3]; 50 mg/kg QD po) | TV on the day of the end of the experiment ([3]; 50 mg/kg QD po) | TV on the day of grouping and administration ([3]; 50 mg/kg QD po) | also measured
7.89 | – | C[C@@H]1CC(=O)Nc2ncnc(N3CCN(C(=O)[C@H](CNC4CC4)c4ccc(Cl)cc4)[C@H]4C[C@H]43)c21 (single isomer, unassigned) [Isomer 1 of Example 1] | – | – | – | – | –
7.05 | 6.21 | CC(C)NC[C@@H](C(=O)N1CCN(c2ncnc3c2[C@H](C)OC(=O)N3)[C@H]2C[C@H]21)c1ccc(Cl)cc1 (single isomer, unassigned) [Isomer 2 of Example 3] | – | – | – | – | –
9.92 | 9.22 | CC(C)NC[C@@H](C(=O)N1CCN(c2ncnc3c2[C@H](C)OC(=O)N3)[C@H]2C[C@H]21)c1ccc(Cl)cc1 (single isomer, unassigned; isomer 4) [Isomer 4 of Example 3] | 10.29% | 89.71% | 99.30±40.55 mm^3 | 177.90±10.06 mm^3 | tumor inhibiting effect in the in vivo experiment ([3]; result in words): obvious tumor inhibiting effect

Source: patent US20230321108A1, “UNIT DOSAGE COMPOSITION OF AKT INHIBITOR” (NANJING CHIA TAI TIANQING PHARMACEUTICAL CO., LTD., priority 2020, published 2023)
